Results: patent US20130085150A1, “ANALOGUES FOR THE TREATMENT OR PREVENTION OF FLAVIVIRUS INFECTIONS” (Vertex Pharmaceuticals Incorporated, priority 2010, published 2013)
Where two headings read alike, the source gives them in different places.

Tested on: HCV (Ib) RNA replication, Huh-ET replicon cells
Assay: Cell-based luciferase reporter HCV (Ib) RNA replication assay
Settings: Hepatitis C virus, 96 h
[1] = HCV 1b replicon, luciferase, 4 days, read-out: EC50_ib

Source text: Cell-Based Luciferase Reporter HCV (Ib) RNA Replication Assay Cell Culture
This cell line allows measurement of HCV RNA replication and translation by measuring luciferase activity. […] The Huh-ET cell line has the same features as those mentioned for Huh-5.2 cell line, except that ET cells are more robust and contain an adaptative mutation in the HCV NS4B gene instead of NS5A. Both cell lines are maintained in cultures at a sub-confluent level (<85%) as the level of replicon RNA is highest in actively proliferating cells. The culture media used for cell passaging consist of DMEM (Gibco BRL Laboratories, Mississauga, ON, Canada) supplemented with 10% foetal bovine serum with 1% penicilin/streptomycin, 1% glutamine, 1% sodium pyruvate, 1% non-essential amino acids, and 180 μg/ml of G418 final concentration. Cells are incubated at 37° C., in an atmosphere of 5% CO2 and passaged twice a week to maintain sub-confluence.
Approximately 3000 viable Huh-ET cells (100 μl) are plated per well in a white opaque 96-well microtiter plate. The cell culture media used for the assay is the same as described above except that it contains no G418 and no phenol red. After an incubation period of 3-4 hours at 37° C. in a 5% CO2 incubator, compounds (100 μl) are added at various concentrations. Cells are then further incubated for 4 days at 37° C. in a 5% CO2 incubator. Thereafter, the culture media is removed and cells are lysed by the addition of 95 μL of the luciferase buffer (luciferin substrate in buffered detergent). Cell lysates are incubated at room temperature and protected from direct light for at least 10 minutes. Plates are read for luciferase counts using a luminometer (Wallac MicroBeta Trilux, Perkin Elmer™, MA, USA).
Curves are fitted to data points using nonlinear regression analysis, and IC50s are interpolated from the resulting curve using GraphPad Prism software, version 2.0 (GraphPad Software Inc., San Diego, Calif., USA).

CCCCN(Cc1nc2cc(C#Cc3ccc4[nH]c(C(=O)NC5CC5)cc4c3)ccc2[nH]1)C(=O)OCc1ccccc1 [Compound 1]
EC50 [1]: 0.005 to 5 µM

CC(C)(C)OC(=O)N1CCC[C@@H]1c1cn2cc(-c3ccc(-c4ccc5nc([C@H]6CCCN6C(=O)OC(C)(C)C)cn5c4)cc3)ccc2n1 [Compound 2]
EC50 [1]: 0.005 to 5 µM

c1cc(-c2ccc3nc([C@H]4CCCN4)cn3c2)ccc1-c1ccc2nc([C@H]3CCCN3)cn2c1 [Compound 3]
EC50 [1]: 0.005 to 5 µM

COC(=O)N[C@H](C(=O)N1C[C@@H](C)CC1c1nc2cc(-c3ccc(-c4ccc5nc(C6C[C@H](C)CN6C(=O)[C@@H](NC(=O)OC)C(C)C)oc5c4)cc3)ccc2[nH]1)C(C)C (stereo partly shown) [Compound 47]
EC50 (read-out: EC50_ib (uM)): < 0.005 µM
